For data set [1], the target named is T1, Human Histamine H3 Receptor (Homo sapiens, UniProt Q9Y5N1).
T1 construct: expressed in transfected cells; host or cells: HEK293T (stably transfected; membranes prepared from the cells)
As to the kind of experiment: Methyl histamine binding in human histamine H3 receptor cell line. As to conditions: read-out: H3 Binding Ki. A digest of the protocol: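 Radioligand binding on membranes (10 μg/well) from a human H3 receptor cell line, 1 nM radioligand, 1 h at 30° C. in 50 mM Tris pH 7.5. Nonspecific binding defined with 10 uM clobenpropit, followed by filtration and scintillation counting. IC50 from four-parameter fit, converted to Ki by Cheng-Prusoff.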

T1 sequence (Q9Y5N1 whole entry): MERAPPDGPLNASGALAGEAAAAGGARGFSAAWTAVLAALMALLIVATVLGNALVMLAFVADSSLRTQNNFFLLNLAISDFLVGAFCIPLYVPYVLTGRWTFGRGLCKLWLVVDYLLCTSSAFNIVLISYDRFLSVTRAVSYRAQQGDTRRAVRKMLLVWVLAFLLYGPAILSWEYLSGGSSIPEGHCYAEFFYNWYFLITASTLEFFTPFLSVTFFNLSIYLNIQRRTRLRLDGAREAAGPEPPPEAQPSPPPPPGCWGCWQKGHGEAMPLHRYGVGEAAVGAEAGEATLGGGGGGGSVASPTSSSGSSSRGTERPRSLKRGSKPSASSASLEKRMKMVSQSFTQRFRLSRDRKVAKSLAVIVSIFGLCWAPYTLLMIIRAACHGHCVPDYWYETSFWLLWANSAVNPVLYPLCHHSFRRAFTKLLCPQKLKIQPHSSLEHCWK

The molecule `CC(C)NC(=O)c1ccc(Oc2ccc3c(c2)CCN(CCN2CCCC2)C3=O)cc1` [Example 94, N-isopropyl-4-{[1-oxo-2-(2-pyrrolidin-1-ylethyl)-1,2,3,4-tetrahydroisoquinolin-6-yl]oxy}benzamide] displayed a melting point of 223 to 224 °C. In addition, the Ki in data set [1] was less than 10 nM.

Regarding `O=C(NC1CCC1)c1ccc(Oc2ccc3c(c2)CCN(CCN2CCCC2)C3=O)cc1` [Example 97, N-cyclobutyl-4-{[1-oxo-2-(2-pyrrolidin-1-ylethyl)-1,2,3,4-tetrahydroisoquinolin-6-yl]oxy}benzamide], the melting point fell in the range of 236 to 237 °C. In data set [1], the Ki was 10.1 to 25 nM.

Turning to `O=C(NC1CC1)c1ccc(Oc2ccc3c(c2)CCN(CCN2CCCC2)C3=O)cc1` [Example 99, N-cyclopropyl-4-{[1-oxo-2-(2-pyrrolidin-1-ylethyl)-1,2,3,4-tetrahydroisoquinolin-6-yl]oxy}benzamid;e], the melting point was in the range of 227 to 228 °C. The inhibition constant (Ki) in data set [1] was less than 10 nM.

As to `O=C(c1ccc(-c2ccc3c(c2)CCN(CCN2CCCC2)C3=O)cc1)C1CC1` [Example 103, 6-[4-(cyclopropylcarbonyl)phenyl]-2-(2-pyrrolidin-1-ylethyl)-3,4-dihydro-isoquinolin-1(2H)-one], the melting point was 244 to 246 °C. For the same molecule, in data set [1], the Ki is less than 10 nM.

For `C[C@@H]1CCCN1CCN1Cc2cc(-c3ccc(C#N)cc3)ccc2C1=O` [Example 117, (R)-4-(2-(2-(2-methylpyrrolidin-1-yl)ethyl)-1-oxoisoindolin-5-yl)benzonitrile], the melting point fell in the range of 214 to 216 °C. Moreover, the Ki in data set [1] was 10.1 to 25 nM.

With `C[C@@H]1CCCN1CCN1Cc2cc(-c3ccc(C(=O)N4CCCC4)cc3)ccc2C1=O` [Example 119, 2-{2-[(2R)-2-methylpyrrolidin-1-yl]ethyl}-5-[4-(pyrrolidin-1-ylcarbonyl)phenyl]-isoindolin-1-one], the melting point lay within 184 to 185 °C. In data set [1], the Ki was more than 100 nM.

`O=C(c1ccc(-c2ccc3c(c2)CCN(CCN2CCCC2)C3=O)cc1F)N1CCCC1` [Example 133, 6-[3-fluoro-4-(pyrrolidin-1-ylcarbonyl)phenyl]-2-(2-pyrrolidin-1-ylethyl)-3,4-dihydroisoquinolin-1(2H)-one] had a melting point of 231 to 232 °C. Besides, the Ki in data set [1] was less than 10 nM.

The molecule `CS(=O)(=O)c1ccc(-c2ccc3c(c2)CCN(CCN2CCCC2)C3=O)cc1` [Example 135, 6-[4-(methylsulfonyl)phenyl]-2-(2-pyrrolidin-1-ylethyl)-3,4-dihydroisoquinolin-1(2H)-one] gave a melting point of 153 to 155 °C. For the same molecule, the inhibitory constant (Ki) in data set [1] is less than 10 nM.

As for `FC(F)(F)Oc1ccc(-c2ccc3c(c2)CCN(CCN2CCCC2)C3)cc1` [Example 171, 2-(2-pyrrolidin-1-ylethyl)-6-[4-(trifluoromethoxy)phenyl]-1,2,3,4-tetrahydroisoquinoline], the melting point was more than 230 °C. Also, the Ki in data set [1] is more than 100 nM.

As for `C[C@@H]1CCCN1CCN1CCc2cc(-c3ccc(F)cc3)ccc2C1` [Example 172, 6-(4-fluorophenyl)-2-{2-[(2R)-2-methylpyrrolidin-1-yl]ethyl}-1,2,3,4-tetrahydroisoquinoline], the melting point lay within 232 to 234 °C. In data set [1], the inhibitory constant (Ki) lay in the range of 25.1 to 50 nM.

`Fc1cccc(-c2ccc3c(c2)CCN(CCN2CCCC2)C3)c1` [Example 173, 6-(3-fluorophenyl)-2-(2-pyrrolidin-1-ylethyl)-1,2,3,4-tetrahydroisoquinoline]: the melting point fell in the range of 272 to 274 °C. In addition, the Ki in data set [1] fell in the range of 50.1 to 100 nM.

In the case of `Fc1ccc(-c2ccc3c(c2)CCN(CCN2CCCCC2)C3)cc1` [Example 174, 6-(4-fluorophenyl)-2-(2-piperidin-1-ylethyl)-1,2,3,4-tetrahydroisoquinoline], the melting point was 272 to 274 °C. Moreover, the Ki in data set [1] was 50.1 to 100 nM.

Turning to `Fc1ccc(-c2ccc3c(c2)CCN(CCN2CCCCCC2)C3)cc1` [Example 175, 2-(2-azepan-1-ylethyl)-6-(4-fluorophenyl)-1,2,3,4-tetrahydroisoquinoline], the melting point fell in the range of 258 to 260 °C. In addition, the inhibition constant (Ki) in data set [1] was more than 100 nM.

For `c1cc2c(cc1-c1ccc3c(c1)OCO3)CCN(CCN1CCCC1)C2` [Example 176, 6-(1,3-benzodioxol-5-yl)-2-(2-pyrrolidin-1-ylethyl)-1,2,3,4-tetrahydroisoquinoline], the melting point was 257 to 259 °C. The Ki in data set [1] is 50.1 to 100 nM.

Usually Ki stands for a dissociation constant, usually derived from enzyme kinetics or from competition with a known ligand. Broadly, the melting point is the temperature, or range, at which the solid turns liquid.

(Values after US20090069300A1, “ISOQUINOLINYL AND ISOINDOLINYL DERIVATIVES AS HISTAMINE-3 ANTAGONISTS” (Wyeth, priority 2007, published 2009).)
